From ChEMBL document CHEMBL5360570, “Discovery of pyrazolo[3,4-b]pyridine derivatives as novel and potent Mps1 inhibitors for the treatment of cancer” (Eur J Med Chem, 2023)
pIC50: −log10 of the molar value.

Legend:
[1] = target: NUAK family SNF1-like kinase 1 (Homo sapiens) (UniProt O60285); assay: Inhibition of ARK5 (unknown origin) assessed as residual activity at 1 uM relative to control
[2] = target: Calcium/calmodulin-dependent protein kinase kinase 2 (Homo sapiens) (UniProt Q96RR4); assay: Inhibition of CAMKK2 (unknown origin) assessed as residual activity at 1 uM relative to control
[3] = target: Epithelial discoidin domain-containing receptor 1 (Homo sapiens) (UniProt Q08345); assay: Inhibition of DDR1 (unknown origin) assessed as residual activity at 1 uM relative to control
[4] = target: Focal adhesion kinase 1 (Homo sapiens) (UniProt Q05397); assay: Inhibition of PTK2 (unknown origin) assessed as residual activity at 1 uM relative to control
[5] = target: Tyrosine-protein kinase Fer (Homo sapiens) (UniProt P16591); assay: Inhibition of FER (unknown origin) assessed as residual activity at 1 uM relative to control
[6] = target: Tyrosine-protein kinase JAK3 (Homo sapiens) (UniProt P52333); assay: Inhibition of JAK3 (unknown origin) assessed as residual activity at 1 uM relative to control
[7] = target: Macrophage colony-stimulating factor 1 receptor (Homo sapiens) (UniProt P07333); assay: Inhibition of FMS (unknown origin) assessed as residual activity at 1 uM relative to control
[8] = target: Serine/threonine-protein kinase SIK2 (Homo sapiens) (UniProt Q9H0K1); assay: Inhibition of SIK2 (unknown origin) assessed as residual activity at 1 uM relative to control
[9] = target: Leukocyte tyrosine kinase receptor (Homo sapiens) (UniProt P29376); assay: Inhibition of TYK1 (unknown origin) assessed as residual activity at 1 uM relative to control
[10] = test system: NPM/ALK (Nucleophosmin/ALK tyrosine kinase receptor) (Homo sapiens), Q9UM73+P06748 [F1174L]; assay: Inhibition of ALK F1174L mutant (unknown origin)/NPM1 (unknown origin) assessed as residual activity at 1 uM relative to control; format: protein assay
[11] = test system: ALK tyrosine kinase receptor (Homo sapiens), Q9UM73 [F1174S]; assay: Inhibition of ALK F1174S mutant (unknown origin) assessed as residual activity at 1 uM relative to control
[12] = test system: ALK tyrosine kinase receptor (Homo sapiens), Q9UM73 [G1202R]; assay: Inhibition of ALK G1202R mutant (unknown origin) assessed as residual activity at 1 uM relative to control
[13] = test system: ALK tyrosine kinase receptor (Homo sapiens), Q9UM73 [G1269S]; assay: Inhibition of ALK G1269S mutant (unknown origin) assessed as residual activity at 1 uM relative to control
[14] = test system: ALK tyrosine kinase receptor (Homo sapiens), Q9UM73 [T1151M]; assay: Inhibition of ALK T1151M mutant (unknown origin) assessed as residual activity at 1 uM relative to control
[15] = test system: ALK tyrosine kinase receptor (Homo sapiens), Q9UM73 [UNDEFINED MUTATION]; assay: Inhibition of ALK T1151/L1152 mutant (unknown origin) assessed as residual activity at 1 uM relative to control
[16] = target: ALK-KIF5B (Homo sapiens) (UniProt Q9UM73+P33176); assay: Inhibition of ALK-KIF5B (unknown origin) assessed as residual activity at 1 uM relative to control; format: protein assay
[17] = target: NPM/ALK (Nucleophosmin/ALK tyrosine kinase receptor) (Homo sapiens) (UniProt Q9UM73+P06748); assay: Inhibition of ALK-NPM1 (unknown origin) assessed as residual activity at 1 uM relative to control; format: protein assay
[18] = target: ALK-TFG (Homo sapiens) (UniProt Q9UM73+Q92734); assay: Inhibition of ALK-TFG (unknown origin) assessed as residual activity at 1 uM relative to control; format: protein assay
[19] = target: ALK-TPM1 (Homo sapiens) (UniProt Q9UM73+P09493); assay: Inhibition of ALK-TPM1 (unknown origin) assessed as residual activity at 1 uM relative to control; format: protein assay
[20] = test system: Fibroblast growth factor receptor 2 (Homo sapiens), P21802 [V564F]; assay: Inhibition of FGFR2 V564F mutant (unknown origin) assessed as residual activity at 1 uM relative to control
[21] = target: ROS1-GOPC (Homo sapiens) (UniProt P08922+Q9HD26); assay: Inhibition of ROS1-GOPC (unknown origin) assessed as residual activity at 1 uM relative to control; format: protein assay
[22] = test system: MCF7; assay: Antiproliferative activity against human MCF7 cells assessed inhibition of cell growth incubated for 72 hrs by CCK-8 assay; format: functional, cell-based; settings: MCF7, 72 h
[23] = test system: HT-29; assay: Antiproliferative activity against human HT-29 cells assessed inhibition of cell growth incubated for 72 hrs by CCK-8 assay; format: functional, cell-based; settings: HT-29, 72 h
[24] = Metabolic stability in human liver microsome assessed as parent compound remaining preincubated for 10 mins followed by NADPH addition and measured immediately by LC-MS/MS analysis; format: ADME; settings: liver microsomes, read-out: Stability
[25] = Metabolic stability in human liver microsome assessed as parent compound remaining preincubated for 10 mins followed by NADPH addition and measured at 5 mins by LC-MS/MS analysis; format: ADME; settings: liver microsomes, time 15 min, read-out: Stability
[26] = Metabolic stability in human liver microsome assessed as parent compound remaining preincubated for 10 mins followed by NADPH addition and measured at 60 mins by LC-MS/MS analysis; format: ADME; settings: liver microsomes, time 70 min, read-out: Stability
[27] = Metabolic stability in human liver microsome assessed as half life preincubated for 10 mins followed by NADPH addition and measured upto 60 mins by LC-MS/MS analysis; format: ADME; settings: liver microsomes, time < 70 min
[28] = Metabolic stability in human microsome assessed as intrinsic clearance preincubated for 10 mins followed by NADPH addition and measured upto 60 mins by LC-MS/MS analysis; format: ADME; settings: microsomes, time < 70 min
[29] = Cmax in Sprague-Dawley rat at 2 mg/kg, iv measured upto 24 hrs by LC-MS/MS analysis; format: ADME, organism-based; parameters: time < 24 hrs, dose 2 mg/kg, route iv; settings: in vivo
[30] = AUC (0 to t) in Sprague-Dawley rat at 10 mg/kg, po measured upto 24 hrs by LC-MS/MS analysis; format: ADME, organism-based; parameters: time < 24 hrs, dose 10 mg/kg, route po; settings: in vivo
[31] = AUC (0 to infinity) in Sprague-Dawley rat at 10 mg/kg, po measured upto 24 hrs by LC-MS/MS analysis; format: ADME, organism-based; parameters: dose 10 mg/kg, time < 24 hrs, route po; settings: in vivo
[32] = MRT (0 to infinity) in Sprague-Dawley rat at 2 mg/kg, iv measured upto 24 hrs by LC-MS/MS analysis; format: ADME, organism-based; settings: in vivo
[33] = Clearance in Sprague-Dawley rat at 2 mg/kg, iv measured upto 24 hrs by LC-MS/MS analysis; format: ADME, organism-based; settings: in vivo
[34] = test system: MDA-MB-468; assay: Antitumor activity against human MDA-MB-468 cells xenografted in BALB/c nude mouse assessed as tumor growth inhibition at 30 mg/kg, iv administered once daily for 21 days; format: functional; settings: MDA-MB-468, 504 h, time 21 day, read-out: TGI
[35] = test system: MDA-MB-468; assay: Antitumor activity against human MDA-MB-468 cells xenografted in BALB/c nude mouse assessed as tumor growth inhibition at 60 mg/kg, po administered once daily for 21 days; format: functional; settings: MDA-MB-468, 504 h, time 21 day, read-out: TGI

Chain of ROS1-GOPC (Homo sapiens) (P08922 whole entry, looked up, other chains not shown): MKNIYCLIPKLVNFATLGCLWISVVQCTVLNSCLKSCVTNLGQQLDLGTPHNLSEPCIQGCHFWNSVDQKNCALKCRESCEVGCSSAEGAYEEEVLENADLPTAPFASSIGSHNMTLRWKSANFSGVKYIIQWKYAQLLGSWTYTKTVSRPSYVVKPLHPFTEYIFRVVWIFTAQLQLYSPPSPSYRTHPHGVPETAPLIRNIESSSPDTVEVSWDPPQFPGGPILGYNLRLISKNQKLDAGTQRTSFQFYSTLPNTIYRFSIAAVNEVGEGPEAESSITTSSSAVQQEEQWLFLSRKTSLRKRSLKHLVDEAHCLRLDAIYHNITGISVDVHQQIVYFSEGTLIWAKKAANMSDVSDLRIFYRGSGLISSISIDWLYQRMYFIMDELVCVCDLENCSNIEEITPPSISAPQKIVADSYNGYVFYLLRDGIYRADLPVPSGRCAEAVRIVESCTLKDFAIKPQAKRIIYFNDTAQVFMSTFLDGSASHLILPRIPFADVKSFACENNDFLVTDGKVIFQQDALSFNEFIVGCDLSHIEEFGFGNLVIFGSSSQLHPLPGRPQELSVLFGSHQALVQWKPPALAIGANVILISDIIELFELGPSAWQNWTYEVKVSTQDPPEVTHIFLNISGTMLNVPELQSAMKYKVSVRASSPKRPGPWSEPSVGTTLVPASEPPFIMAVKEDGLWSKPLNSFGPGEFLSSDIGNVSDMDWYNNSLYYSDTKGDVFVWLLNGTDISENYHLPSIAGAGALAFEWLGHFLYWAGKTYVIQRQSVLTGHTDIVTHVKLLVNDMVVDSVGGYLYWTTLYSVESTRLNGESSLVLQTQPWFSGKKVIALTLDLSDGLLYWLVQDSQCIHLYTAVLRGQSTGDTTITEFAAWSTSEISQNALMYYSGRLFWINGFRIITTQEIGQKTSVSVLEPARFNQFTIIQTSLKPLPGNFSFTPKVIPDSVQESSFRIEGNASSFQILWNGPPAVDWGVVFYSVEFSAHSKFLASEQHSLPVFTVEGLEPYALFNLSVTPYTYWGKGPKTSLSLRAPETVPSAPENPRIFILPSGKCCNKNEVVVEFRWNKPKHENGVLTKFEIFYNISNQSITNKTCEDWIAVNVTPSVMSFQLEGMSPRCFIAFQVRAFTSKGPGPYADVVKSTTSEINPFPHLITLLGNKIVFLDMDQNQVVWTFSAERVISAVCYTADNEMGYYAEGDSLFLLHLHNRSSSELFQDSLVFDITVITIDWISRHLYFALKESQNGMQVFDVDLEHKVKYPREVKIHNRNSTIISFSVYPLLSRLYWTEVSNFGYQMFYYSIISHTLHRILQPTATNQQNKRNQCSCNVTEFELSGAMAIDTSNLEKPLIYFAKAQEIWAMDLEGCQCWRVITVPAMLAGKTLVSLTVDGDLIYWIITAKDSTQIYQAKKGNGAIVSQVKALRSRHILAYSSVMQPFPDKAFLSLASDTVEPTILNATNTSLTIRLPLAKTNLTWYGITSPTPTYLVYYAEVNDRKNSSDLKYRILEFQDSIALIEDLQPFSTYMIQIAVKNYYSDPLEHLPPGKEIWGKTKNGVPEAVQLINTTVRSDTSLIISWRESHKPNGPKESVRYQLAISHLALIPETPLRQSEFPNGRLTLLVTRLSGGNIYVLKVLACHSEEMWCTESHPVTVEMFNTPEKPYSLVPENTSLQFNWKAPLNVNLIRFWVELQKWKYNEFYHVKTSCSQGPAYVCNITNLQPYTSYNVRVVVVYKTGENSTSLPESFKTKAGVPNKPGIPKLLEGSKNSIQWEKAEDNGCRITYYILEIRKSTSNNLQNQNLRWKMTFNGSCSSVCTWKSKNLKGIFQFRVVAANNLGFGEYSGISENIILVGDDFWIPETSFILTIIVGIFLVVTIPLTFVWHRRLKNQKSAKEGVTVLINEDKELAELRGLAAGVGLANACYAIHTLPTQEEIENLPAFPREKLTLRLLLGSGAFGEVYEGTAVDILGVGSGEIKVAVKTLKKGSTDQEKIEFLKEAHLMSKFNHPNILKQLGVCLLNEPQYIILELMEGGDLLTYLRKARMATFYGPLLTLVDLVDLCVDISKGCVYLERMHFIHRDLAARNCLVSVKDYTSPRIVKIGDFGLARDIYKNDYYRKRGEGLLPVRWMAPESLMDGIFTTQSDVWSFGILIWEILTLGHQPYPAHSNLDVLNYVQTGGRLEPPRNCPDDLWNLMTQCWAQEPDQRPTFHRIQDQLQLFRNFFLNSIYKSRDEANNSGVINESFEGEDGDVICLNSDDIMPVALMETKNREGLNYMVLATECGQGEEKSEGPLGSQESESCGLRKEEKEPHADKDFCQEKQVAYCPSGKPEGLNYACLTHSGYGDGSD
Chain of ALK tyrosine kinase receptor (Homo sapiens), Q9UM73 [G1202R] (Q9UM73 whole entry G1202R): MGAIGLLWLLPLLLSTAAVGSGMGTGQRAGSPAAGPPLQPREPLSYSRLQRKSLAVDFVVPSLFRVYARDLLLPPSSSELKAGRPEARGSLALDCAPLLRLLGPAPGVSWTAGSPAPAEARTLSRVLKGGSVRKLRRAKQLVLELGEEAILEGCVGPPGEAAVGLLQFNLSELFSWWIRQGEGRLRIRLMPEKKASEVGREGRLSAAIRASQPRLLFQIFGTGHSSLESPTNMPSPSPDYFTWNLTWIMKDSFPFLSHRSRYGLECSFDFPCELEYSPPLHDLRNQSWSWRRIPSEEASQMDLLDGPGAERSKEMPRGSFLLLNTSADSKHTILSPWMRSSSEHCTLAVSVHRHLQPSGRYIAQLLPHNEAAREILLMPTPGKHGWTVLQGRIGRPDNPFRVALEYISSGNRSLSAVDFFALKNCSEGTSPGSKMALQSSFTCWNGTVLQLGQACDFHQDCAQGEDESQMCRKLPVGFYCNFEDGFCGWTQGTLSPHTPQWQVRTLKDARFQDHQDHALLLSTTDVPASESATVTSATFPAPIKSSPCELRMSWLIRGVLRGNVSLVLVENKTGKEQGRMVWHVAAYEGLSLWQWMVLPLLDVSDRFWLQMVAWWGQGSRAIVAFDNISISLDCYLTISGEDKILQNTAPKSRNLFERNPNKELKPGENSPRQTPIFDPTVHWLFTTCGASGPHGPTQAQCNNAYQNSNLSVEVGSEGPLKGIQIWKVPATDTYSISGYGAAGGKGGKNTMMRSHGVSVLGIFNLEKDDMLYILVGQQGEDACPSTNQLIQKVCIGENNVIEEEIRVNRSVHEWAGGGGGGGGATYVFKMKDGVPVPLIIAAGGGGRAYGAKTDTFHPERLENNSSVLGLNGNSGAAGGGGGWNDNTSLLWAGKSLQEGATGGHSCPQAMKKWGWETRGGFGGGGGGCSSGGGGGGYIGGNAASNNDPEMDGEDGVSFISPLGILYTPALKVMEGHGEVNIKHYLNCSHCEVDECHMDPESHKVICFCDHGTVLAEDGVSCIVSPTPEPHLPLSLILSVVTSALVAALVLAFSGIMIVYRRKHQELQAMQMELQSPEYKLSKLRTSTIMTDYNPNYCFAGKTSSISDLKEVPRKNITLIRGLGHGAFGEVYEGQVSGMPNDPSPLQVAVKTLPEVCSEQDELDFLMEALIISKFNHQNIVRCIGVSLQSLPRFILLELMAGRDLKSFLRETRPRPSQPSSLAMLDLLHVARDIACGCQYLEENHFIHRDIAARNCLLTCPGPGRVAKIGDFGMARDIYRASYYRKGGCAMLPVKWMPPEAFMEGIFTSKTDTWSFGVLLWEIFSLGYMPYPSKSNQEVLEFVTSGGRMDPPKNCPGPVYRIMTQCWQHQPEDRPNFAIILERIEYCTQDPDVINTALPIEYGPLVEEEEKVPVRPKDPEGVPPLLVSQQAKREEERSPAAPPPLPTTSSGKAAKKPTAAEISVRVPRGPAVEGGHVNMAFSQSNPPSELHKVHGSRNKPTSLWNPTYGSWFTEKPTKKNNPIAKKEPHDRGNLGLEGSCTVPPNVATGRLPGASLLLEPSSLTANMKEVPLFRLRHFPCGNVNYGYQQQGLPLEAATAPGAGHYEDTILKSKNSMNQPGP
Chain of Serine/threonine-protein kinase SIK2 (Homo sapiens) (Q9H0K1 whole entry, looked up): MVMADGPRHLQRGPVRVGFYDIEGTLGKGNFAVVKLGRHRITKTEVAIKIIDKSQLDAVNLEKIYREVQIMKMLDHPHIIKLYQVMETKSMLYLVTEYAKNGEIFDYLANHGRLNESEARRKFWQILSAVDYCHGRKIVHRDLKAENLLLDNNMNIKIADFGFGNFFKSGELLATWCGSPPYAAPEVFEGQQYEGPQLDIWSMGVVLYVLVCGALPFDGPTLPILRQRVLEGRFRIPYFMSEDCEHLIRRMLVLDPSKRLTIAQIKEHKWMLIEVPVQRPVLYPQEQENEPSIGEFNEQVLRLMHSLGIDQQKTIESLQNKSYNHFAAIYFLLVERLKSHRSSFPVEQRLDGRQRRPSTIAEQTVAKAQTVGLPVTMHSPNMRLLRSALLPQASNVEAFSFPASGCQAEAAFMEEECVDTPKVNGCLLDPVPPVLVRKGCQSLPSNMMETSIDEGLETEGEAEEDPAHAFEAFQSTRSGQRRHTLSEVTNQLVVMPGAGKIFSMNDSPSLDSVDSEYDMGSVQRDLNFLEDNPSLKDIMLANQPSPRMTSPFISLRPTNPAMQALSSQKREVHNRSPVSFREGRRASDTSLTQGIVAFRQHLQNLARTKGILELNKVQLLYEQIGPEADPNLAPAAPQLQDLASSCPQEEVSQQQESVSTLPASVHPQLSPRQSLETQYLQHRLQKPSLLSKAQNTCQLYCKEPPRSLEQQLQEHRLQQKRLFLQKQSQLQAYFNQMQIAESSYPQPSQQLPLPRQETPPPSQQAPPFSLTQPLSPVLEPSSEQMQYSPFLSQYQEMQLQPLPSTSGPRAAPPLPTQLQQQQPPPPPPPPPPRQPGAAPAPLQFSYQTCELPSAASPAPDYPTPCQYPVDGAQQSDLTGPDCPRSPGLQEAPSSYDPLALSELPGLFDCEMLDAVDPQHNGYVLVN

Activity [1]: < 10% | Activity [2]: < 10% | Activity [3]: < 10% | Activity [4]: < 10% | Activity [5]: < 10% | Activity [6]: < 10% | Activity [7]: < 10% | Activity [8]: < 10% | Activity [9]: < 10% | Activity [10]: < 10% | Activity [11]: < 10% | Activity [12]: < 10% | Activity [13]: < 10% | Activity [14]: < 10% | Activity [15]: < 10% | Activity [16]: < 10% | Activity [17]: < 10% | Activity [18]: < 10% | Activity [19]: < 10% | Activity [20]: < 10% | Activity [21]: < 10% | pIC50 [22]: < 5.00 | pIC50 [23]: < 5.00 | remaining at 0 min [24]: 100% | remaining at 5 min [25]: 82.7% | remaining at 1 h [26]: 29.4% | half-life [27]: 35.2 min | microsomal CLint [28]: 39.4 µL/min/mg | Cmax [29]: 2920 ng/mL | AUC(0-t) at 24 h [30]: 204 ng·h/mL | AUC(0-inf) [31]: 208 ng·h/mL | MRT inf [32]: 21.2 min | clearance [33]: 32 mL/min/kg
SMILES: CCc1cccc(CC)c1N1CCn2cc(-c3nc(Nc4ccc(N5CCN(C(C)=O)CC5)cc4OC)nc4[nH]ncc34)cc2C1=O
inhibition in vivo at 30 mg/kg [34]: 21% | inhibition in vivo at 60 mg/kg [35]: 34%
